Data as given in US20070093465A1, “Cephem compound” (priority 2003, published 2007).
≈ marks a conversion by molar mass, not a printed value.

Experiments:
Test in all cases: Bioactivity: growth inhibition / minimal inhibitory concentration in liquid culture
Format in all cases: cell-based
[1] = tested on: Micrococcus luteus DSM 348; settings: DSM348, 48 h, M. luteus DSM 348, liquid 2x TY, microtiterplates incubated 2 days at 25 degrees Celsius, 550 rpm
Description: (§1) The adipoyl-7-amino-3-carbamoyloxymethyl-3-cephem-4-carboxylic acid prepared according to Example 3 was used to evaluate its activity versus different bacteria. Bacteria used were: Escherichia coli ESS [xxxref komt nogxx], Micrococcus luteus DSM 348 [Andrade, A. C., Van Nistelrooy, J. G. M., Peery, R. B., Skatrud, P. L., De Waard, M. A., 2000, The role of ABC transporters from Aspergillus nidulans in protection against cytotoxic agents and in antibiotic production] and Bacillus subtilis ATCC 6633 [xxxref komt nogxx] The bacteria were grown overnight in liquid 2× TY [xxxref komt nogxx] at 37 degrees and 280 rotations per minute and subsequently diluted 1000-fold in fresh medium. Two ml deep-well microtiterplates were inoculated with 1 ml of the diluted bacterial cultures and different concentrations of adipoyl-7-amino-3-carbamoyloxymethyl-3-cephem-4-carboxylic acid (adipoyl-ACCA or Ad-ACCA) were added to individual wells wells. As control several other active and less-active b-lactams were used: 6-APA, Adipoyl-6-APA, 7-ADCA, adipoyl-7-ADCA, 7-ACA, cephalosporinC and cefuroxime. The microtiterplates were incubated for 2 days at 25 degrees Celsius and 550 rotations per minute.
(§2) The results for growth inhibition by adipoyl-7-ADCA, adipoyl-ACCA and cefuroxime are summarized in FIGS. 14 (B. subtilis), 15 (E. coli) and 16 (M. luteus).
(§3) The minimal inhibitory concentrations of adipoyl-7-amino-3-carbamoyloxymethyl-3-cephem-4-carboxylic acid for B. subtilis ATCC 6633, E. coli ESS and M. luteus DSM 348 were 4, 7 and 7 uM, respectively.

[2] = tested on: Escherichia coli ESS; settings: 48 h, E. coli ESS, liquid 2x TY, microtiterplates incubated 2 days at 25 degrees Celsius, 550 rpm
Description: as §1, §2, §3

[3] = tested on: Bacillus subtilis ATCC 6633; settings: ATCC6633, 48 h, B. subtilis ATCC 6633, liquid 2x TY, microtiterplates incubated 2 days at 25 degrees Celsius, 550 rpm
Description: as §1, §2, §3

NC(=O)OCC1=C(C(=O)O)N2C(=O)[C@@H](NC(=O)CCCCC(=O)O)[C@H]2SC1 [adipoyl-7-amino-3-carbamoyloxymethyl-3-cephem-4-carboxylic acid]
MIC [1]: 7 µM (≈ 2.81 µg/mL)
MIC [2]: 7 µM (≈ 2.81 µg/mL)
MIC [3]: 4 µM (≈ 1.61 µg/mL)
